Measurements as given in ChEMBL document CHEMBL1201862, “PubChem BioAssay data set” (2004).
Active and inactive are the calls of the source.

Assays:
[1] = target: T1, Delta-type opioid receptor (Homo sapiens, UniProt P41143); assay: HTS Image-Based Screen for Antagonists of the DOR Receptor. [Related pubchem assays (depositor defined):AID1777, AID1785, AID1786, AID2133]; format: functional
Mu-type opioid receptor = Mu-type opioid receptor (Homo sapiens, UniProt P35372); assay: HTS Image-Based Screen for Agonists of the MOR Receptor. [Related pubchem assays (depositor defined):AID1777, AID1785, AID1786, AID2133]; format: functional;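 further: imaging of beta-arrestin GFP recruitment into spots after receptor activation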
[2] = target: T1, Delta-type opioid receptor; assay: HTS Image-Based Screen for Agonists of the DOR Receptor. [Related pubchem assays (depositor defined):AID1777, AID1786, AID2133]; format: functional
Streptokinase A = target: T2, Streptokinase A (Streptococcus pyogenes serotype M1, UniProt P10520); assay: S. pyogenes streptokinase expression inhibitors, potency, dose response, plasminogen activation absorbance, OD405 (AID 1914); format: functional, Streptococcus pyogenes M1 GAS;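 further: secreted streptokinase activity via plasminogen activation per viability signal from cell pellet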
T2 sequence (P10520 whole entry): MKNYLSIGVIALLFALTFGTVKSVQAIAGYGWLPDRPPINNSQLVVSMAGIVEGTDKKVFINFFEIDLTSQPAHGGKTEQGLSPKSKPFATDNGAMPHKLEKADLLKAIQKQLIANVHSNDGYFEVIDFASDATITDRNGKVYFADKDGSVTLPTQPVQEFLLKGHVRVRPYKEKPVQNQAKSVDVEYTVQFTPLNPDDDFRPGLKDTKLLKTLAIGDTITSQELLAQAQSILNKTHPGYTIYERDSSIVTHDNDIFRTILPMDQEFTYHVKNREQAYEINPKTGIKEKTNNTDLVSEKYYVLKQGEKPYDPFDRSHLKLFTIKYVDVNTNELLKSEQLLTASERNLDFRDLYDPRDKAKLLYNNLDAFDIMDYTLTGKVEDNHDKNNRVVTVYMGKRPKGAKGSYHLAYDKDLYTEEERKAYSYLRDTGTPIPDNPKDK

[3] = target: T3, Kappa-type opioid receptor (Homo sapiens, UniProt P41145); format: functional
T3 sequence (P41145 whole entry): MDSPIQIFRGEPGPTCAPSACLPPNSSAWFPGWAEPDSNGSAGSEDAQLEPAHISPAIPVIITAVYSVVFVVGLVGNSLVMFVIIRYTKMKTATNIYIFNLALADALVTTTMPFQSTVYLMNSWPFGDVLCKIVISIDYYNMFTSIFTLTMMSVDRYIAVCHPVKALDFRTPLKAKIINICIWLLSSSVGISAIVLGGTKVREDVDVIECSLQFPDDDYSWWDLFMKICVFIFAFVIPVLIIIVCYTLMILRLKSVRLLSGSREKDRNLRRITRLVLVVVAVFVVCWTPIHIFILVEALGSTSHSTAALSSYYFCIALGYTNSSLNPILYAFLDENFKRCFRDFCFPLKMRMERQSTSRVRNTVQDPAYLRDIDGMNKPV

Beta-galactosidase = Beta-galactosidase (Escherichia coli, UniProt Q8VNN2); format: functional
Sequence of Beta-galactosidase (Q8VNN2 whole entry): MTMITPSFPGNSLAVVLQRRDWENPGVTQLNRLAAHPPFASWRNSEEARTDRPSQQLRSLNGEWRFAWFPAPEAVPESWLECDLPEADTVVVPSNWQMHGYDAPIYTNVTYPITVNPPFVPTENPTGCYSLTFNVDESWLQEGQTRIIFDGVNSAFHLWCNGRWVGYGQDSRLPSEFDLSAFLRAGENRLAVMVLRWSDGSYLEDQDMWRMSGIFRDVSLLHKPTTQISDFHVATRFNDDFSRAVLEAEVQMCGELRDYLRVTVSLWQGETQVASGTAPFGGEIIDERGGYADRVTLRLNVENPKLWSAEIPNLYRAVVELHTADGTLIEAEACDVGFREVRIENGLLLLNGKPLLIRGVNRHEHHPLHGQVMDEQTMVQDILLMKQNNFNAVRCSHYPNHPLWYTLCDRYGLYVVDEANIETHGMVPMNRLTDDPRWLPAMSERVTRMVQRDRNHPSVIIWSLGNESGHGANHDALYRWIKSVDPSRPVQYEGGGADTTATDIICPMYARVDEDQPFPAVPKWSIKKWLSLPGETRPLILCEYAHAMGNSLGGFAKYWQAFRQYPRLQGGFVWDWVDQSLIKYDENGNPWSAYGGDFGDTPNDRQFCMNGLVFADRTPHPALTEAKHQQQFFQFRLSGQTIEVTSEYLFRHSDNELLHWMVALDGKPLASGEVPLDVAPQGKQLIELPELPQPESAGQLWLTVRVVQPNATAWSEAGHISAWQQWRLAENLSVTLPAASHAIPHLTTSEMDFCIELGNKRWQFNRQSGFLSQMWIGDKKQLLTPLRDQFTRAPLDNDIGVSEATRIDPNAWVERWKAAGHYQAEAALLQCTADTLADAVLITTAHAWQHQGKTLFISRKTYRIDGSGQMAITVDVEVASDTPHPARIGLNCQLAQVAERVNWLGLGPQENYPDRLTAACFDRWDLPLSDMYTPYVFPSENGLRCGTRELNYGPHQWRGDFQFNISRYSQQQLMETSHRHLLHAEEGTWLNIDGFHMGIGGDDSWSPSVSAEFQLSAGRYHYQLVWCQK

[4] = target: T3, Kappa-type opioid receptor; format: functional; remark: listed apart in the source
Paired box protein Pax-8 = Paired box protein Pax-8 (Homo sapiens, UniProt Q06710); assay: inhibitors of PAX8-driven TPO luciferase reporter, dose response, RMG-I cells, cherry-pick (AID 687027); format: functional, cell-based;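 further: luciferase reporter driven by Pax8 target thyroperoxidase promoter measured by SteadyGlo luminescence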
Sequence of Paired box protein Pax-8 (Q06710 whole entry): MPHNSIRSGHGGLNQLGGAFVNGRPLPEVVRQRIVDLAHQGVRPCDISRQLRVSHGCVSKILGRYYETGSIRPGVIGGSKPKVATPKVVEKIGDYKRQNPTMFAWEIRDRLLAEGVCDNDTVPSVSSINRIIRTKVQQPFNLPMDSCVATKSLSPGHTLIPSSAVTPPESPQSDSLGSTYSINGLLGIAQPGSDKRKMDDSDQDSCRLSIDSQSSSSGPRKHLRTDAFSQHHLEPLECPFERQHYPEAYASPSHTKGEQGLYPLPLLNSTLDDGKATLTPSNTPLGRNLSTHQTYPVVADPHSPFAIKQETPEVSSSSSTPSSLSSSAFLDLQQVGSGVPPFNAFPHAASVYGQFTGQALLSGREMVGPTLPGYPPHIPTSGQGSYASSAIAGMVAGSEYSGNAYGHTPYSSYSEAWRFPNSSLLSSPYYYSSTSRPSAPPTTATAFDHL

[5] = A cytotoxicity screen of small molecule inhibitors of the PhoP region in Salmonella typhi identified in the primary screen. [Related pubchem assays: 1850, 1864, 1985 ]; format: functional
Hexokinase HKDC1 = target: T4, Hexokinase HKDC1 (Homo sapiens, UniProt Q2TB90); assay: HKDC1 hexokinase activators, dose response, biochemical, W721R variant (AID 504730); format: functional
T4 sequence (Q2TB90 whole entry): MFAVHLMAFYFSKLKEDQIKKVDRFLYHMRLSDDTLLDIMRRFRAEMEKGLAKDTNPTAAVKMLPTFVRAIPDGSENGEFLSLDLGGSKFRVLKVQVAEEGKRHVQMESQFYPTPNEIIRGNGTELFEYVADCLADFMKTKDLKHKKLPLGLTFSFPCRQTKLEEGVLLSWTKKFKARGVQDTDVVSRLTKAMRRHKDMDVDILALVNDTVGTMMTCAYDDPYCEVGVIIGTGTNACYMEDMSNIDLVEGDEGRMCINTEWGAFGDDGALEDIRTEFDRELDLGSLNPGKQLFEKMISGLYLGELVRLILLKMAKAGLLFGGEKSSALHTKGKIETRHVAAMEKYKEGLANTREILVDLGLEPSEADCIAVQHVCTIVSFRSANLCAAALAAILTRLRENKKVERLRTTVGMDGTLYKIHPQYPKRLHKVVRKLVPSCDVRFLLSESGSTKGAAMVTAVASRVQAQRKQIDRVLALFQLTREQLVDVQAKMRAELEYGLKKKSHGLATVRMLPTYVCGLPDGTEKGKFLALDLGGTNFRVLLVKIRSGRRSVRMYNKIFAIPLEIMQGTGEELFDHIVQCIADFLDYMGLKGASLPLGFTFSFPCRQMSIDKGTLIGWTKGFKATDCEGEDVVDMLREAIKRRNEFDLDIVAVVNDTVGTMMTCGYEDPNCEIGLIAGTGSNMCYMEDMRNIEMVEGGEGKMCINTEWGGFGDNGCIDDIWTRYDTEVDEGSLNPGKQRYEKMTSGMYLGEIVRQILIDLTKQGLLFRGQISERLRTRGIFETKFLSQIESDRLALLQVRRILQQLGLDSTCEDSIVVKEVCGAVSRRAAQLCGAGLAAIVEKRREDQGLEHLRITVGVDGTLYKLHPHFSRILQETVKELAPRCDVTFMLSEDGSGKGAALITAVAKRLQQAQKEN

Hexokinase-1 = Hexokinase-1 (Homo sapiens, UniProt P19367); assay: hexokinase 1 activators, dose response, selectivity assay for HKDC1 activator project, biochemical (AID 504762); format: functional
Sequence of Hexokinase-1 (P19367 whole entry): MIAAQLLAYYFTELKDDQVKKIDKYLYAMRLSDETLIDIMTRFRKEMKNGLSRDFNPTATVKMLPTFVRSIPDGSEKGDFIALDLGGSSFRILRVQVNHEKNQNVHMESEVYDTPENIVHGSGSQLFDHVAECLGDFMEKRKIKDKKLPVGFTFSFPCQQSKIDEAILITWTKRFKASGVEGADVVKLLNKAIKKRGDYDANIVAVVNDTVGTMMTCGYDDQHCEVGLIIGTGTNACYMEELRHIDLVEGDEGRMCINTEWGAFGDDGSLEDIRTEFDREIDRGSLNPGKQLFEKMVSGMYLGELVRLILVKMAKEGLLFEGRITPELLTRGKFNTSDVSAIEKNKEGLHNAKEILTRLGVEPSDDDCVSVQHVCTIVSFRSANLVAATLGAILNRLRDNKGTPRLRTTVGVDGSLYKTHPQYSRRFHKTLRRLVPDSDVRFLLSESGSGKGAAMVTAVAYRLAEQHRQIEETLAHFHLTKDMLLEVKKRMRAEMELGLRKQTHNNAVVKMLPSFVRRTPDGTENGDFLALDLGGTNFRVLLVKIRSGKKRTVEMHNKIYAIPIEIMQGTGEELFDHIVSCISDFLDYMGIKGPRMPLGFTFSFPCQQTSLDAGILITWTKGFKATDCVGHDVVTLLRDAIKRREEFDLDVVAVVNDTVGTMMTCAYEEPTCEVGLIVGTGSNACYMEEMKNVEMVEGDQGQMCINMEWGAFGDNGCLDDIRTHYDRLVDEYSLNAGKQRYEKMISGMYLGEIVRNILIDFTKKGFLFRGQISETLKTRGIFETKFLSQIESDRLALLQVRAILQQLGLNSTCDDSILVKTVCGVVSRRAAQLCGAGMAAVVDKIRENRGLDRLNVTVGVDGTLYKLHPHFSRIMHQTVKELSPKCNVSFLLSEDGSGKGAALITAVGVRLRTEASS

NADPH oxidase 1 [6] = target: T5, NADPH oxidase 1 (Homo sapiens, UniProt Q9Y5S8); assay: NOX1 inhibitors, concentration-response, dose response, cell-based, luminescence, cherry picks 2 (AID 434997); format: functional
T5 sequence (Q9Y5S8 whole entry): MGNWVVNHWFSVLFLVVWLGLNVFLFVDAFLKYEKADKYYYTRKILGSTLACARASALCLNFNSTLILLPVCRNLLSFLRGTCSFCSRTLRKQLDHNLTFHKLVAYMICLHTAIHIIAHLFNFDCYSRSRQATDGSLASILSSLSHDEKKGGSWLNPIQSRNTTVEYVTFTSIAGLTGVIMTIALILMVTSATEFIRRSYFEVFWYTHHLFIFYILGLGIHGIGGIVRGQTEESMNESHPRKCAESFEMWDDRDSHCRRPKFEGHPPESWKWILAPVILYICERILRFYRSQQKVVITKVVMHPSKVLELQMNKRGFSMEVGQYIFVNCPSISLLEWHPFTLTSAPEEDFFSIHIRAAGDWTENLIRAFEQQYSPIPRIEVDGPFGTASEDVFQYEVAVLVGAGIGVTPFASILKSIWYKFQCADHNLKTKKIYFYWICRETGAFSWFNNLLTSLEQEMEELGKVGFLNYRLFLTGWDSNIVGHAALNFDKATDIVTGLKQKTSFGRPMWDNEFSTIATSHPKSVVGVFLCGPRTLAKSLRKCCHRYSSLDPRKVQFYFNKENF

NADPH oxidase 1 [7] = target: T5, NADPH oxidase 1; assay: ROS production inhibition in HEK293 cells, late-stage follow-up, counter-screen for NOX1 inhibitor project, cell-based, IC50, set 2 (AID 435002); format: functional
NADPH oxidase 4 = NADPH oxidase 4 (Homo sapiens, UniProt Q9NPH5); assay: PubChem AID 435013
Sequence of NADPH oxidase 4 (Q9NPH5 whole entry): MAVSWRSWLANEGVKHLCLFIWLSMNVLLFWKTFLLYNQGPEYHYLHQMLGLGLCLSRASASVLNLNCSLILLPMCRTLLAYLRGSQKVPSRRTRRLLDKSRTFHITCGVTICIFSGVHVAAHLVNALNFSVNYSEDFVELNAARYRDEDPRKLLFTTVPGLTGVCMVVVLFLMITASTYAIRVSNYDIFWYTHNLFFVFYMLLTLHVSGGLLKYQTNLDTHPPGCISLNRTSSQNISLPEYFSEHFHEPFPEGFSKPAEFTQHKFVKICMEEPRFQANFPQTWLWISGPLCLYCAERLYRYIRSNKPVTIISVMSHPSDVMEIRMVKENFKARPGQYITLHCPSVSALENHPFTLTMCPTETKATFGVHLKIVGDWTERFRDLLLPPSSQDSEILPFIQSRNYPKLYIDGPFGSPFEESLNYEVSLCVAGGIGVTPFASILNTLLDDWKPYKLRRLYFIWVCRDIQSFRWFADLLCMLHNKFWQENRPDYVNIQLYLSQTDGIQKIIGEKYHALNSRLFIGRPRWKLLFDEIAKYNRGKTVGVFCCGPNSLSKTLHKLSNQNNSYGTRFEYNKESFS

NADPH oxidase 3 = NADPH oxidase 3 (Homo sapiens, UniProt Q9HBY0); assay: PubChem AID 435013
Sequence of NADPH oxidase 3 (Q9HBY0 whole entry): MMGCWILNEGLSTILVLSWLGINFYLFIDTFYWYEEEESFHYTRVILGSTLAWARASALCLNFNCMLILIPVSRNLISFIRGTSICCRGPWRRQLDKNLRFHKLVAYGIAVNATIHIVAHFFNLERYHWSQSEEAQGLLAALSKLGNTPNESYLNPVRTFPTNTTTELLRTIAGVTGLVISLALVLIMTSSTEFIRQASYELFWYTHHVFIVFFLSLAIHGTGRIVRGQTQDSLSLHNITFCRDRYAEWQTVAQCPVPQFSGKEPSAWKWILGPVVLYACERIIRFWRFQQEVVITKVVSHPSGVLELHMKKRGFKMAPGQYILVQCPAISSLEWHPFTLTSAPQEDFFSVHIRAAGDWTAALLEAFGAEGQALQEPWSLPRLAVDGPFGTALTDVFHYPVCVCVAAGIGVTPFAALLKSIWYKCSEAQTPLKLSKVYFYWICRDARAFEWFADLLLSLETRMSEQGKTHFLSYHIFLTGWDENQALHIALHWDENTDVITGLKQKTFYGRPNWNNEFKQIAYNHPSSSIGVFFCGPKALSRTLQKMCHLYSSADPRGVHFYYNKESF

NADPH oxidase 2 = NADPH oxidase 2 (Homo sapiens, UniProt P04839); assay: PubChem AID 435013
Sequence of NADPH oxidase 2 (P04839 whole entry): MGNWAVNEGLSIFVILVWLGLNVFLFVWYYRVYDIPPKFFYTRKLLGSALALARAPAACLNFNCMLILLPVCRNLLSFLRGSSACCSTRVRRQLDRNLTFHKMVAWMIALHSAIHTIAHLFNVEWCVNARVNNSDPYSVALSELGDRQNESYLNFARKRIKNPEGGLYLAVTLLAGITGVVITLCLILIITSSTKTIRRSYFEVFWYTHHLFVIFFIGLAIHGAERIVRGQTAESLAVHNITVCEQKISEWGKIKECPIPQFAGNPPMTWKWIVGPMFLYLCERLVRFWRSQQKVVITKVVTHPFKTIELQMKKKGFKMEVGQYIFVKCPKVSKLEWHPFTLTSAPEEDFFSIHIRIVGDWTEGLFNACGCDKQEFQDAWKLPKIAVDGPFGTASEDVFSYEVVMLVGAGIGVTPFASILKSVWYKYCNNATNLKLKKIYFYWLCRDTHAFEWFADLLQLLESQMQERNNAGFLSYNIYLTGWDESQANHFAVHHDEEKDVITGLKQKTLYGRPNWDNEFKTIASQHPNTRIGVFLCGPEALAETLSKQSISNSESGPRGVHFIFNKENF

T1 sequence (P41143 whole entry): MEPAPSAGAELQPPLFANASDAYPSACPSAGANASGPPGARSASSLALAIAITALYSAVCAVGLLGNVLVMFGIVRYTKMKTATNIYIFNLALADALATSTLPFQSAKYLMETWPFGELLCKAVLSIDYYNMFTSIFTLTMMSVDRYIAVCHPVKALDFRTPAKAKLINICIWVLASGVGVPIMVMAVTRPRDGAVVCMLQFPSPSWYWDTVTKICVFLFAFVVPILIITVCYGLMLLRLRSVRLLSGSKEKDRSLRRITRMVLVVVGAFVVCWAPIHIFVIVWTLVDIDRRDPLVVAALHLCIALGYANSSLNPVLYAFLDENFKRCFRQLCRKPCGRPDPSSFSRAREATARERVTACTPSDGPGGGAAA

## O=c1nc(-c2ccccn2)[nH]c2sc(-c3ccccc3)cc12
[1]
  IC50: > 32 µM (inactive)
Mu-type opioid receptor
  EC50: > 32 µM (inactive)
[2]
  EC50: > 32 µM (inactive)
Streptokinase A
  EC50: > 150 µM (not active)
[3]
  IC50: 1.79 µM (active)
Beta-galactosidase
  EC50: > 31.5 µM (inactive)
[4]
  IC50: > 32 µM
Paired box protein Pax-8
  AC50: 14 µM (active)

## Nc1nc(N2CCN(c3ccccn3)CC2)nc2ccccc12
[5]
  EC50: > 50 µM (active)
Hexokinase HKDC1
  EC50: 25.4 µM (inactive)
Hexokinase-1
  EC50: 32.2 µM (inactive)

## CN(C)c1ccc(/C=N/Nc2c(Cl)cncc2Cl)cc1
NADPH oxidase 1 [6]
  IC50: 440 nM (active)
NADPH oxidase 1 [7]
  IC50: 4 µM (active)
NADPH oxidase 4
  IC50: 9 µM (active)
NADPH oxidase 3
  IC50: 20 µM (inactive)
NADPH oxidase 2
  IC50: > 10 µM (inactive)
